Common to all, as to test: relative viability (nuclei count vs DMSO), 5 days (fraction); higher = more cells survive
Compound in experiment [1]: C[C@H]([C@@H](C(=O)N)NC(=O)[C@@H]1CSSC[C@@H](C(=O)N[C@H](C(=O)N[C@@H](C(=O)N[C@H](C(=O)N1)CCCCN)CC2=CNC3=CC=CC=C32)CC4=CC=C(C=C4)O)NC(=O)[C@@H](CC5=CC=CC=C5)N)O [CAP-232] + CS(=O)(=O)CCNCc1ccc(-c2ccc3ncnc(Nc4ccc(OCc5cccc(F)c5)c(Cl)c4)c3c2)o1 [Lapatinib] (partner 2 µM)
Put shortly: (§1)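 Relative viability equals treated-well nuclei counts divided by vehicle-well nuclei counts. Counts came from 4× images of lung cancer cell lines grown in 1536-well plates for 5 days after pin-tool dosing on the day after seeding. Dosing used one drug alone or a fixed anchor-drug dose plus five library-drug doses (not always all listed) in √10 steps, and values are medians of duplicate plates.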

Compound in experiment [2]: C[C@H]([C@@H](C(=O)N)NC(=O)[C@@H]1CSSC[C@@H](C(=O)N[C@H](C(=O)N[C@@H](C(=O)N[C@H](C(=O)N1)CCCCN)CC2=CNC3=CC=CC=C32)CC4=CC=C(C=C4)O)NC(=O)[C@@H](CC5=CC=CC=C5)N)O [CAP-232] + CCNC(=O)c1noc(-c2cc(C(C)C)c(O)cc2O)c1-c1ccc(CN2CCOCC2)cc1 [Luminespib] (partner 0.01 µM)
Put shortly: as §1

Compound in experiment [3]: C[C@H]([C@@H](C(=O)N)NC(=O)[C@@H]1CSSC[C@@H](C(=O)N[C@H](C(=O)N[C@@H](C(=O)N[C@H](C(=O)N1)CCCCN)CC2=CNC3=CC=CC=C32)CC4=CC=C(C=C4)O)NC(=O)[C@@H](CC5=CC=CC=C5)N)O [CAP-232] + CC(=O)c1c(C)c2cnc(Nc3ccc(N4CCNCC4)cn3)nc2n(C2CCCC2)c1=O [Palbociclib] (partner 0.5 µM)
The procedure, abridged: as §1

Compound in experiment [4]: C[C@H]([C@@H](C(=O)N)NC(=O)[C@@H]1CSSC[C@@H](C(=O)N[C@H](C(=O)N[C@@H](C(=O)N[C@H](C(=O)N1)CCCCN)CC2=CNC3=CC=CC=C32)CC4=CC=C(C=C4)O)NC(=O)[C@@H](CC5=CC=CC=C5)N)O [CAP-232] + CS(=O)(=O)N1CCN(Cc2cc3nc(-c4cccc5[nH]ncc45)nc(N4CCOCC4)c3s2)CC1 [Pictilisib] (partner 1 µM)
Put shortly:
as §1

Compound in experiment [5]: C[C@H]([C@@H](C(=O)N)NC(=O)[C@@H]1CSSC[C@@H](C(=O)N[C@H](C(=O)N[C@@H](C(=O)N[C@H](C(=O)N1)CCCCN)CC2=CNC3=CC=CC=C32)CC4=CC=C(C=C4)O)NC(=O)[C@@H](CC5=CC=CC=C5)N)O [CAP-232] + CC(=O)Nc1cccc(-n2c(=O)n(C3CC3)c(=O)c3c(Nc4ccc(I)cc4F)n(C)c(=O)c(C)c32)c1 [Trametinib] (partner 0.02 µM)
The procedure, abridged:
as §1

With NCI-H2170, the relative viability in experiment [1] (first compound 0.4 µM) is 0.274; in experiment [1] (first compound 1.265 µM), 0.281; in experiment [1] (first compound 4 µM) it was 0.255; in experiment [1] (first compound 12.65 µM) it was 0.272; in experiment [2] (first compound 0.4 µM), 0.777; in experiment [2] (first compound 1.265 µM), 0.866. The relative viability was determined as 0.674 in experiment [2] (first compound 4 µM); 0.826 in experiment [2] (first compound 12.65 µM); 0.358 in experiment [3] (first compound 0.4 µM); 0.38 in experiment [3] (first compound 1.265 µM); 0.429 in experiment [3] (first compound 4 µM); 0.424 in experiment [3] (first compound 12.65 µM). Moreover, the relative viability in experiment [4] (first compound 0.4 µM) was determined as 0.257; in experiment [4] (first compound 1.265 µM), 0.275; in experiment [4] (first compound 4 µM) it was 0.259; in experiment [4] (first compound 12.65 µM), 0.286; in experiment [5] (first compound 0.4 µM) it was 0.977; in experiment [5] (first compound 1.265 µM), 0.918. Moreover, the relative viability is 1.05 in experiment [5] (first compound 4 µM) and 1.08 in experiment [5] (first compound 12.65 µM).
As to NCI-H2228, the relative viability is 1.32 in experiment [1] (first compound 0.4 µM); 0.907 in experiment [1] (first compound 1.265 µM); 1.66 in experiment [1] (first compound 4 µM); 0.904 in experiment [1] (first compound 12.65 µM); 0.142 in experiment [2] (first compound 0.4 µM); 0.128 in experiment [2] (first compound 1.265 µM). The relative viability in experiment [2] (first compound 4 µM) was determined as 0.189; in experiment [2] (first compound 12.65 µM) it was 0.177; in experiment [3] (first compound 0.4 µM), 1.06; in experiment [3] (first compound 1.265 µM) it was 0.803; in experiment [3] (first compound 4 µM) it was 0.971; in experiment [3] (first compound 12.65 µM), 0.632. The relative viability worked out at 0.381 in experiment [4] (first compound 0.4 µM); 0.768 in experiment [4] (first compound 1.265 µM); 0.369 in experiment [4] (first compound 4 µM); 0.269 in experiment [4] (first compound 12.65 µM); 0.473 in experiment [5] (first compound 0.4 µM); 0.523 in experiment [5] (first compound 1.265 µM). Moreover, the relative viability in experiment [5] (first compound 4 µM) worked out at 0.715; in experiment [5] (first compound 12.65 µM), 0.414.
With NCI-H2347, the relative viability came out at 0.944 in experiment [1] (first compound 0.4 µM); 0.898 in experiment [1] (first compound 1.265 µM); 0.931 in experiment [1] (first compound 4 µM); 0.864 in experiment [1] (first compound 12.65 µM); 0.274 in experiment [2] (first compound 0.4 µM); 0.493 in experiment [2] (first compound 1.265 µM). The relative viability in experiment [2] (first compound 4 µM) was found to be 0.443; in experiment [2] (first compound 12.65 µM) it was 0.471; in experiment [3] (first compound 0.4 µM) it was 0.453; in experiment [3] (first compound 1.265 µM) it was 0.462; in experiment [3] (first compound 4 µM) it was 0.412; in experiment [3] (first compound 12.65 µM), 0.423. The relative viability in experiment [4] (first compound 0.4 µM) stood at 0.412; in experiment [4] (first compound 1.265 µM), 0.764; in experiment [4] (first compound 4 µM), 0.894; in experiment [4] (first compound 12.65 µM), 0.508; in experiment [5] (first compound 0.4 µM), 0.34; in experiment [5] (first compound 1.265 µM), 0.255. The relative viability in experiment [5] (first compound 4 µM) came out at 0.256; in experiment [5] (first compound 12.65 µM) it was 0.241.
As for NCI-H2405, the relative viability in experiment [1] (first compound 0.4 µM) is 1.03; in experiment [1] (first compound 1.265 µM), 0.99; in experiment [1] (first compound 4 µM), 1.12; in experiment [1] (first compound 12.65 µM), 0.722; in experiment [2] (first compound 0.4 µM), 0.61; in experiment [2] (first compound 1.265 µM), 0.709. Also, the relative viability came out at 0.641 in experiment [2] (first compound 4 µM); 0.491 in experiment [2] (first compound 12.65 µM); 0.553 in experiment [3] (first compound 0.4 µM); 0.563 in experiment [3] (first compound 1.265 µM); 0.536 in experiment [3] (first compound 4 µM); 0.369 in experiment [3] (first compound 12.65 µM). For the same cell line, the relative viability in experiment [4] (first compound 0.4 µM) turned out to be 0.372; in experiment [4] (first compound 1.265 µM) it was 0.441; in experiment [4] (first compound 4 µM), 0.565; in experiment [4] (first compound 12.65 µM) it was 0.322; in experiment [5] (first compound 0.4 µM) it was 0.416; in experiment [5] (first compound 1.265 µM), 0.673. In addition, the values for the relative viability in experiment [5] (first compound 4 µM) and in experiment [5] (first compound 12.65 µM) were 0.558 and 0.447, respectively.

The values are drawn from the supplement of paper PMC10307832.
